According to ChEMBL document CHEMBL5352381, “Design and development of a novel series of oral bivalent BET inhibitors with potent anticancer activities” (Eur J Med Chem, 2022):
Calls of active or inactive are those of the source. No cut-off for these calls is given here.

Tests used:
[1] = test system: Ty-82; test: Antiproliferative activity against human Ty-82 cells incubated for 72 hrs by sulforhodamine B based cell counting kit-8 assay; assay type: functional; details: TY82, 72 h
[2] = test system: MM1.S; test: Antiproliferative activity against human MM1.S cells incubated for 72 hrs by sulforhodamine B based cell counting kit-8 assay; assay type: functional
[3] = Metabolic stability in human liver microsomes assessed as half life; assay type: ADME, Microsome
[4] = Metabolic stability in dog liver microsomes assessed as half life; assay type: ADME, Canis lupus familiaris, Microsome
[5] = Metabolic stability in mouse liver microsomes assessed as half life; assay type: ADME, Microsome
[6] = Metabolic stability in human liver microsomes assessed as clearance; assay type: ADME, Microsome; details: read-out: CLH
[7] = Metabolic stability in dog liver microsomes assessed as clearance; assay type: ADME, Canis lupus familiaris, Microsome; details: read-out: CLH
[8] = Metabolic stability in mouse liver microsomes assessed as clearance; assay type: ADME, Microsome; details: read-out: CLH
[9] = test system: Ty-82; test: Antitumor activity against human Ty-82 cells xenografted in BALB/c nude mouse assessed tumor growth inhibition treated at 0.5 mg/kg, po qd for 21 days relative to control; assay type: functional; details: TY82, 504 h, time 21 day, read-out: TGI
[10] = Toxicity in BALB/c mouse xenografted with human Ty-82 assessed as body weight loss treated at 0.25 to 0.5 mg/kg, po qd for 21 days; assay type: organism-based; details: in vivo, 504 h, dose 0.25-0.5 mg/kg, time 21 day
[11] = Toxicity in BALB/c mouse xenografted with human Ty-82 assessed as death treated at 0.25 to 0.5 mg/kg, po qd for 21 days; assay type: organism-based; details: in vivo, 504 h, dose 0.25-0.5 mg/kg, time 21 day
[12] = test system: Ty-82; test: Induction of apoptosis in human Ty-82 cells assessed as reduction of IDO1 mRNA level at 0.1 to 10 nM for 24 hrs by […]; assay type: functional, cell-based; details: dose 0.1-10 nM
[13] = test system: Ty-82; test: Induction of apoptosis in human Ty-82 cells assessed as reduction of c-Myc mRNA level at 0.1 to 10 nM for 24 hrs by […]; assay type: functional, cell-based; details: dose 0.1-10 nM
[14] = test system: Ty-82; test: Induction of apoptosis in human Ty-82 cells for 48 hrs by annexin V-FITC based flow cytometric analysis; assay type: functional, cell-based; details: dose 0.1-10 nM
[15] = test system: CAPAN-1; test: Induction of apoptosis in human CAPAN-1 cells for 48 hrs by annexin V-FITC based flow cytometric analysis; assay type: functional, cell-based; details: dose 0.1-10 nM
[16] = test system: Ty-82; test: Induction of apoptosis in human Ty-82 cells assessed as increase in caspase 9 at 0.1 to 10 nM for 48 hrs […]; assay type: functional, cell-based; details: dose 0.1-10 nM
[17] = test system: CAPAN-1; test: Induction of apoptosis in human CAPAN-1 cells assessed as increase in caspase 9 at 0.1 to 10 nM for 48 hrs […]; assay type: functional, cell-based; details: dose 0.1-10 nM
[18] = test system: Ty-82; test: Induction of apoptosis in human Ty-82 cells assessed as increase in caspase 3 at 0.1 to 10 nM for 48 hrs […]; assay type: functional, cell-based; details: dose 0.1-10 nM
[19] = test system: CAPAN-1; test: Induction of apoptosis in human CAPAN-1 cells assessed as increase in caspase 3 at 0.1 to 10 nM for 48 hrs […]; assay type: functional, cell-based; details: dose 0.1-10 nM
[20] = test system: Ty-82; test: Induction of apoptosis in human Ty-82 cells assessed as increase in caspase 7 at 0.1 to 10 nM for 48 hrs […]; assay type: functional, cell-based; details: dose 0.1-10 nM
[21] = test system: CAPAN-1; test: Induction of apoptosis in human CAPAN-1 cells assessed as increase in caspase 7 at 0.1 to 10 nM for 48 hrs […]; assay type: functional, cell-based; details: dose 0.1-10 nM
[22] = test system: Ty-82; test: Induction of apoptosis in human Ty-82 cells assessed as increase in cleaved PARP at 0.1 to 10 nM for 48 hrs […]; assay type: functional, cell-based; details: dose 0.1-10 nM
[23] = test system: CAPAN-1; test: Induction of apoptosis in human CAPAN-1 cells assessed as increased cleaved PARP at 0.1 to 10 nM for 48 hrs […]; assay type: functional, cell-based; details: dose 0.1-10 nM
[24] = test system: MV4-11; test: Antitumor activity against human MV4-11 cells xenografted in BALB/c mouse assessed as growth inhibition at 0.6 mg/kg, po qd 21 days relative to control; assay type: functional; details: MV4-11, 504 h, time 21 day, read-out: GI
[25] = Toxicity in BALB/c mouse xenografted with human MV4-11 cells assessed as body weight loss at 0.6 mg/kg, po qd 21 days; assay type: organism-based; details: in vivo, 504 h, time 21 day

C[C@@H]1CN(C(=O)c2nc(-c3ccc4c(c3)N(C3CCC3)[C@H](C)C(=O)N4C)n(-c3cccc(Cl)c3)n2)[C@@H](C)CN1C(=O)c1nc(-c2ccc3c(c2)N(C2CCC2)[C@H](C)C(=O)N3C)n(-c2cccc(Cl)c2)n1
IC50 [1]: 50 pM
IC50 [2]: 70 pM
half-life [3]: 3.86 h
half-life [4]: 14.6 h
half-life [5]: 3.72 h
microsomal CLint [6]: 6 µL/min/mg
microsomal CLint [7]: 1.6 µL/min/mg
microsomal CLint [8]: 6.2 µL/min/mg
inhibition in vivo at 0.5 mg/kg [9]: 73.5%
Activity [10]: Toxic
Activity [11]: Non-Toxic
Activity [12]: Active
Activity [13]: Active
Activity [14]: Dose-Dependent Effect
Activity [15]: Dose-Dependent Effect
Activity [16]: Active
Activity [17]: Active
Activity [18]: Active
Activity [19]: Active
Activity [20]: Active
Activity [21]: Active
Activity [22]: Active
Activity [23]: Active
inhibition in vivo at 0.6 mg/kg [24]: 88.9%
Activity [25]: Toxic
